Source: patent US20040116523A1, “Use of c4-c10 acids for preventing gram-negative bacterial infections” (priority 2000, published 2004)

Tests used:
Salmonellae = test: Bactericidal or bacteriostatic effect on the Salmonellae at neutral pH; format: cell-based, Salmonella
[1] = tested on: iagA′-lacZcat fusion in S. typhi strain Ty267; test: "Biotype 100" plate screen for carbon-based substrates that repress the iagA′-lacZcat fusion (β-galactosidase activity); format: cell-based; conditions: "Biotype 100" cupule, amount of substrate not known; favourable LB medium; 36 hours at 37° C.; control cupule without substrate 11 250
Experimental: Each of the strains described above was cultured at 37° C. on agar or in TCS broth. The P-galactosidase activity was determined using 4-methyl-umbelliferyl-p-D-galactopyranoside sold by the company Sigma, according to the technique of Klarsfeld et al. (Mol. Mibrobiol., 1994, 13, 585-597). The results, expressed in P-galactosidase units (fluorescence per hour and per OD600), represent the mean of the values obtained in at least three independent experiments. The standard deviations were less than 10% of the values presented.
A “Biotype 100”® plate sold by the company BioMerieux is composed of 100 microcupules. Each micro-cupule contains a dehydrated carbon-based substrate, with the exception of the first cupule, which is a control without substrate (the amount of dehydrated substrate per cupule is not given by the manufacturer).
In the context of the present example, these plates were used to search for carbon-based compounds which would block the expression of the invasion genes in Salmonella.
For this, the S. typhi strain Ty267, which is a derivative of the parental strain Ty2 carrying the iagA′-lacZcat transcriptional fusion (Table I), was cultured in TCS broth for 18 hours at 37° C. with shaking (200 rpm).
This culture was then diluted 100-fold in favourable LB medium (0.6 ml of culture for 60 ml of favourable LB), and then this suspension was used immediately to seed the 100 cupules of a “Biotype 100”® plate, in a proportion of 450 μl of suspension per cupule.
After incubation for 36 hours in an incubator at 37° C., the activity of the iagA′-lacZcat fusion in the Ty267 strain was determined for the culture of each cupule.
By comparing the value of the P-galactosidase activity measured in a cupule containing a carbon-based substrate with that of the control cupule without substrate, it was possible to investigate whether a substrate had no effect on, activated or repressed the expression of the iagA′-lacZcat fusion.
The S. typhi strain Ty267 (iagA′-lacZ fusion), suspended in the favourable LB medium, was used to seed the “Biotype 100”® plates.
The β-galactosidase activity expressed by the iagA′-lacZ fusion was determined for the culture in each cupule. With respect to the β-galactosidase activity measured in the control cupule without substrate (11 250 β-galactosidase units), no substrate caused an increase in the expression of the iagA′-lacZ fusion.

[2] = tested on: Gram-positive or Gram-negative microorganisms; conditions: acid pH (free acid form); cited from earlier work

In the case of `CCCCCCCC(=O)[O-].[Na+]` [sodium caprylate], the “bactericidal or bacteriostatic effect on the Salmonellae” value (Salmonellae) is given as “none of these compounds has any significant bactericidal or bacteriostatic effect”, the “β-galactosidase activity expressed by the iagA′-lacZ fusion in the cupule” value [1] is given as 47 β-galactosidase units and the “bactericidal activity on a great variety of Gram-positive or Gram-negative microorganisms” value [2] is given as “bactericidal activity”.
